Data taken from ChEMBL document CHEMBL1201862, “PubChem BioAssay data set” (2004).
Active and inactive are the calls of the source.

How the values were obtained:
[1] = molecular target: Fructose-bisphosphate aldolase (Mycobacterium tuberculosis, UniProt P9WQA3); assay: Fluorescence-based biochemical high throughput dose response assay for inhibitors of the fructose-bisphosphate aldolase (FBA) of M. tuberculosis.; assay type: functional
[2] = molecular target: T1, Trace amine-associated receptor 1 (Homo sapiens, UniProt Q96RJ0); assay: Counterscreen for agonists of the human trace amine associated receptor 1 (hTAAR1): Fluorescence-based cell-based high throughput dose response assay to identify hTAAR1 agonist that also desensitize TAAR1 receptor response.; assay type: functional
T1 sequence (Q96RJ0 whole entry): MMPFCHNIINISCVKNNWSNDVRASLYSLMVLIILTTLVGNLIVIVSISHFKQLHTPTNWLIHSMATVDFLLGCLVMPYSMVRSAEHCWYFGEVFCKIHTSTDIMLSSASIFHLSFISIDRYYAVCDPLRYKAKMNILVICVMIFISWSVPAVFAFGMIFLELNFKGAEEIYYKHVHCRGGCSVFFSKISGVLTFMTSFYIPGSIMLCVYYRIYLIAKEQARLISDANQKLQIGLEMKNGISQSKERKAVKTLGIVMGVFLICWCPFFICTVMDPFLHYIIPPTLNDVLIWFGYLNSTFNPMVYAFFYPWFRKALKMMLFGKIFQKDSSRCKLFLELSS

[3] = molecular target: T1, Trace amine-associated receptor 1; assay: Fluorescence-based cell-based high throughput dose response assay to identify agonists of the human trace amine associated receptor 1 (TAAR1).; assay type: functional
[4] = cells; assay type: functional, cell-based
[5] = cells; assay type: functional, cell-based; remark: listed apart in the source
[6] = cytotoxicity toward NIH3T3 fibroblasts, dose response, counter-screen, cell-based, ATP luminescence, mouse fibroblasts (AID 2010); assay type: functional;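 also: cells exposed to compound for about 90 hours before reading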
[7] = growth suppression of beta-catenin-knockout colon cells, dose response, cell-based, HCT116, human colon tumor (AID 1045); assay type: functional;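 also: HCT116 colon tumor cells with beta catenin knocked out; cells exposed to compound for 60 hours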
[8] = molecular target: Matrix metalloproteinase-14 (Homo sapiens, UniProt P50281); assay: Dose Response confirmation of uHTS hits for a small molecule inhibitors of MT1-MMP activation in a fluorescence assay set 1.; assay type: functional
[9] = growth suppression of PTEN-null colon cells, dose response, cell-based, HCT116 PTEN knockout (AID 1047); assay type: functional;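 also: HCT116 colon tumor cells with PTEN knocked out; cells exposed to compound for 60 hours before readout; potency for loss of cell viability measured by luminescence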
[10] = inhibitors of intracellular T. cruzi replication, confirmation, NIH3T3 host cells, beta-gal luminescence (AID 2044); assay type: functional, cell-based;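 also: intracellular parasites grown in NIH/3T3 mouse fibroblasts as host cells; luminescent beta-galactosidase reporter signal from transgenic T. cruzi replicating inside host cells; inhibitors lower the luminescence signal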
[11] = molecular target: Albumin (Bos taurus, UniProt P02769); assay: Counterscreen for inhibitors of T-cell receptor (TCR)-CD3 interaction: Fluorescence-based biochemical high throughput dose response assay to identify inhibitors of T-cell receptor (TCR)-CD3 interaction using a TAMRA-labeled BSA probe.; assay type: functional
Sequence of Albumin (P02769 whole entry, the tested form may be a part): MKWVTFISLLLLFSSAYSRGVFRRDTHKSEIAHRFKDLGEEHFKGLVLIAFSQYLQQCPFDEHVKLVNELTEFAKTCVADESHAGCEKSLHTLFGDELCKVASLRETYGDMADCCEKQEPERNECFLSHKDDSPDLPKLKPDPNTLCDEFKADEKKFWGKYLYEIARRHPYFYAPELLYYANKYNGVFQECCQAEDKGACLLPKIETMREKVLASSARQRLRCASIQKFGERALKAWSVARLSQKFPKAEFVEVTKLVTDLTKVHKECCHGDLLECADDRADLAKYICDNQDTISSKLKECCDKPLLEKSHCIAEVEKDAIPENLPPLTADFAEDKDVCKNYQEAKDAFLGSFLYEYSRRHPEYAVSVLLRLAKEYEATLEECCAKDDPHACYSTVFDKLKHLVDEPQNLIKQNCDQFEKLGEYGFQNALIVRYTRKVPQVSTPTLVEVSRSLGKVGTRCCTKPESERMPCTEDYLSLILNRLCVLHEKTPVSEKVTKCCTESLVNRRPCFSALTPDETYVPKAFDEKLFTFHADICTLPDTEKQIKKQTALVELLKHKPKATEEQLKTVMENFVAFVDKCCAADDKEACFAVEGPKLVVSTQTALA

[12] = molecular target: Disintegrin and metalloproteinase domain-containing protein 17 (Homo sapiens, UniProt P78536); assay: exosite inhibitors of ADAM17, dose response, biochemical (AID 743260)
Sequence of Disintegrin and metalloproteinase domain-containing protein 17 (P78536 whole entry, the tested form may be a part): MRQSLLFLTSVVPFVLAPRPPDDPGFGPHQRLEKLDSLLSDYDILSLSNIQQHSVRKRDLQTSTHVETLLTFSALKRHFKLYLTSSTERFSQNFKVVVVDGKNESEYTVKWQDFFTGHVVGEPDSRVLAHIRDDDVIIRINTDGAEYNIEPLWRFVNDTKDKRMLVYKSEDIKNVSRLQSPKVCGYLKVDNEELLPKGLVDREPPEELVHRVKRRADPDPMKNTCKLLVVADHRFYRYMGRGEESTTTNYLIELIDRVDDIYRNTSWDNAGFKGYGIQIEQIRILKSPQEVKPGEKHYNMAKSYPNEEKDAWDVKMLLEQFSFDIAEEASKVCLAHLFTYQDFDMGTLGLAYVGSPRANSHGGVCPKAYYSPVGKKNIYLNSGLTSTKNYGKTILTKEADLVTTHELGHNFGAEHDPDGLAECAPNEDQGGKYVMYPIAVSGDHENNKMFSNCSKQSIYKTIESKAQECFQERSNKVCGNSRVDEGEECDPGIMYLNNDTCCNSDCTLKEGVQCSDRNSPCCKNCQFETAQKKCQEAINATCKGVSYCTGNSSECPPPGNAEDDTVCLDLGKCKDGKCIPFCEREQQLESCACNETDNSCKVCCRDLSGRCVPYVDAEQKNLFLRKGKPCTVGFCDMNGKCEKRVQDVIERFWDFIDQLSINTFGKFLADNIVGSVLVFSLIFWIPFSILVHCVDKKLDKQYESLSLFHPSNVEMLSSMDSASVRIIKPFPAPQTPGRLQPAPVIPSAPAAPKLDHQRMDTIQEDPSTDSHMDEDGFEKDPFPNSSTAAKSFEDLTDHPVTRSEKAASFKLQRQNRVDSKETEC

[13] = ADAM10 protease inhibitors, dose response, selectivity assay for ADAM17 exosite inhibitor project, biochemical, FRET peptide substrate, recombinant human ADAM10 (AID 743259);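 also: ADAM10 enzyme cleaving a FRET peptide substrate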
[14] = inhibitors of clade B AD8 Env fusion, dose response, cell-based, cherry-pick (AID 652062); assay type: functional;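 also: luciferase signal from cell-cell fusion driven by HIV-1 clade B AD8 Env; potency is for inhibitors of fusion seen as a drop in luminescence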
[15] = CEM21 lymphoblast cell cytotoxicity, dose response, cytotoxicity control for viral fusion inhibitor project, CellTiter-Glo luminescence, cherry-picked (AID 652042); assay type: functional, cell-based;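 also: potency for signal decrease meaning cytotoxicity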
[16] = off-target signal loss in HeLa-CEM21 co-culture – HeLa F-luc CTL cells, cherry-picked, counter-screen for HIV-1 Env fusion inhibitor project, dose response (AID 652040); assay type: functional, cell-based;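 also: potency for signal decrease marking cytotoxic or nonspecific inhibition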
[17] = inhibitors of HIV Env-driven cell fusion, dose response, cherry-pick (AID 652057); assay type: functional, cell-based
[18] = molecular target: T2, Leucine aminopeptidase (Plasmodium falciparum 3D7, UniProt Q8IL11); assay: P. falciparum M17LAP inhibitors, primary screen, biochemical, fluorogenic H-Leu-NHMec substrate, 1536-well (AID 1619); assay type: functional
T2 sequence (Q8IL11 whole entry): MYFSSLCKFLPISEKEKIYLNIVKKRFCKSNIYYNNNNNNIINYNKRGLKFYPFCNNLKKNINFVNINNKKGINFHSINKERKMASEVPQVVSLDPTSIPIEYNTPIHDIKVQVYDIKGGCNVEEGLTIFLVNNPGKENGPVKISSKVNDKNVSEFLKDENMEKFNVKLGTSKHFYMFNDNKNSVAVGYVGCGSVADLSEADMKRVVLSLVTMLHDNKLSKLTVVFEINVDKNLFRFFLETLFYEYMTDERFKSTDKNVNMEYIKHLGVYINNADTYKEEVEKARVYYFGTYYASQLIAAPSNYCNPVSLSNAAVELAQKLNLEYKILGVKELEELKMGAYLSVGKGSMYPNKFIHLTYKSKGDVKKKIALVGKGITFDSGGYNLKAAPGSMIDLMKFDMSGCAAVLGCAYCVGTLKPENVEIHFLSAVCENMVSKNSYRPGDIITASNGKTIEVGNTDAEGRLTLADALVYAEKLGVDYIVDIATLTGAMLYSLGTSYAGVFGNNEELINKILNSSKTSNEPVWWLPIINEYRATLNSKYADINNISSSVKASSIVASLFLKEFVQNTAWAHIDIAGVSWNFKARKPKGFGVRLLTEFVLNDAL

Sequence of Fructose-bisphosphate aldolase (P9WQA3 whole entry): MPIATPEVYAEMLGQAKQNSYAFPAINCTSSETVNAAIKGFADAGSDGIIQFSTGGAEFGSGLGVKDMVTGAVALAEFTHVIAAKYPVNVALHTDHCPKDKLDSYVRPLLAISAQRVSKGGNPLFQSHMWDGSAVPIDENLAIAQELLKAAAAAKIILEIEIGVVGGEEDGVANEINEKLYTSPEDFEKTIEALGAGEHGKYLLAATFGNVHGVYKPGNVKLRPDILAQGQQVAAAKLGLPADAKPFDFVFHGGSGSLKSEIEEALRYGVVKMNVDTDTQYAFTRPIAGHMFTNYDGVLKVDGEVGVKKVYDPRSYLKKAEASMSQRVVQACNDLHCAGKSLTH

With `Cc1cc(C)c2oc(-c3cccc(N)c3)nc2c1` the IC50 [1] was 0.518 µM (active).
For `Cc1ccccc1-n1c(=O)cc(N2CCc3ccccc3C2)[nH]c1=O`, the IC50 [2] was 7.07 µM (active), the EC50 [3] was 2.59 µM (active) and the EC50 [4] was > 29.9 µM (inactive). For the same compound, the IC50 [5] was > 29.9 µM (inactive).
For `Nc1nc(-c2ccc(Cl)cc2)c(N=Nc2ccc(S(=O)(=O)N3CCOCC3)cc2)s1`, the EC50 [6] was > 60 µM (inconclusive), the EC50 [7] was 17.4 µM (active) and the IC50 [8] was 27.7 µM (inactive). The EC50 [9] was 16.5 µM (active) and the EC50 [10] was 1.96 µM (active).
In the case of `COc1ccccc1N(C)S(=O)(=O)c1ccc(C(=O)NNC(=O)c2ccccc2O)cc1`, the IC50 [11] is reported as > 94.1 µM (inactive), the IC50 [12] is reported as > 69.5 µM (inactive) and the IC50 [13] is reported as > 69.5 µM (inactive).
With `COc1ccc(COC(=O)C2=C(C)NC(=O)NC2c2ccc(OC)cc2)cc1` (configuration not stated) the AC50 [14] was 33.4 µM (active), the AC50 [15] was 60.3 µM (active) and the AC50 [16] was 47.3 µM (active). The AC50 [17] was 21.6 µM (active).
In the case of `CC1=C(C)CC(C(=O)NCCc2ccccc2)C(C(=O)O)C1` (configuration not stated), the IC50 [2] is reported as 7.2 µM (active), the EC50 [3] is reported as 1.4 µM (active) and the IC50 [18] is reported as 46 µM (active). For the same compound, the EC50 [4] was > 29.9 µM (inactive) and the IC50 [5] was > 29.9 µM (inactive).
